Where two headings read alike, the source gives them in different places.
Assays:
EGFR Del19/T790M/C797S = EGFR Del19/T790M/C797S (Homo sapiens, UniProt P00533, C797S/DEL746-750/T790M); experiment: Biochemical EGFR kinase inhibition assay (Lance Ultra TR-FRET), triple mutant del19/T790M/C797S
How it was run: (§1)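 Kinase activity is measured by TR-FRET phosphopeptide detection. Compounds span 0.003 μM to 10 μM; the 1 h reaction at room temperature is quenched with EDTA, then labelled antibody (2 nM) is incubated 60 min before reading.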

EGFR L858R/T790M/C797S = EGFR L858R/T790M/C797S (Homo sapiens, UniProt P00533, C797S/L858R/T790M); experiment: Biochemical EGFR kinase inhibition assay (Lance Ultra TR-FRET), triple mutant L858R/T790M/C797S
How it was run: as §1

EGFR Del19/C797S = EGFR Del19/C797S (Homo sapiens, UniProt P00533, C797S/DEL746-750); experiment: Biochemical EGFR kinase inhibition assay (Lance Ultra TR-FRET), double mutant del19/C797S
How it was run: as §1

EGFR L858R/C797S = EGFR L858R/C797S (Homo sapiens, UniProt P00533, C797S/L858R); experiment: Biochemical EGFR kinase inhibition assay (Lance Ultra TR-FRET), double mutant L858R/C797S
How it was run: as §1

EGFR wildtype (WT) = EGFR wildtype (WT) (Homo sapiens, UniProt P00533); experiment: Biochemical EGFR kinase inhibition assay (Lance Ultra TR-FRET), wildtype
How it was run: as §1

[1] = IC50 Del19/T790M/C797S (nM), 100 μM ATP
[2] = Km ATP, read-out: IC50 Del19/T790M/C797S (nM), Km ATP
[3] = IC50 L858R/T790M/C797S (nM), 100 μM ATP
[4] = Km ATP, read-out: IC50 L858R/T790M/C797S (nM), Km ATP
[5] = IC50 Del19/C797S (nM), 100 μM ATP
[6] = Km ATP, read-out: IC50 Del19/C797S (nM), Km ATP
[7] = IC50 L858R/C797S (nM), 100 μM ATP
[8] = Km ATP, read-out: IC50 L858R/C797S (nM), Km ATP
[9] = Km ATP, read-out: IC50 WT (nM), Km ATP

EGFR Del19/T790M/C797S, sequence (P00533 with tags, fused parts or gaps DEL746-750/T790M/C797S): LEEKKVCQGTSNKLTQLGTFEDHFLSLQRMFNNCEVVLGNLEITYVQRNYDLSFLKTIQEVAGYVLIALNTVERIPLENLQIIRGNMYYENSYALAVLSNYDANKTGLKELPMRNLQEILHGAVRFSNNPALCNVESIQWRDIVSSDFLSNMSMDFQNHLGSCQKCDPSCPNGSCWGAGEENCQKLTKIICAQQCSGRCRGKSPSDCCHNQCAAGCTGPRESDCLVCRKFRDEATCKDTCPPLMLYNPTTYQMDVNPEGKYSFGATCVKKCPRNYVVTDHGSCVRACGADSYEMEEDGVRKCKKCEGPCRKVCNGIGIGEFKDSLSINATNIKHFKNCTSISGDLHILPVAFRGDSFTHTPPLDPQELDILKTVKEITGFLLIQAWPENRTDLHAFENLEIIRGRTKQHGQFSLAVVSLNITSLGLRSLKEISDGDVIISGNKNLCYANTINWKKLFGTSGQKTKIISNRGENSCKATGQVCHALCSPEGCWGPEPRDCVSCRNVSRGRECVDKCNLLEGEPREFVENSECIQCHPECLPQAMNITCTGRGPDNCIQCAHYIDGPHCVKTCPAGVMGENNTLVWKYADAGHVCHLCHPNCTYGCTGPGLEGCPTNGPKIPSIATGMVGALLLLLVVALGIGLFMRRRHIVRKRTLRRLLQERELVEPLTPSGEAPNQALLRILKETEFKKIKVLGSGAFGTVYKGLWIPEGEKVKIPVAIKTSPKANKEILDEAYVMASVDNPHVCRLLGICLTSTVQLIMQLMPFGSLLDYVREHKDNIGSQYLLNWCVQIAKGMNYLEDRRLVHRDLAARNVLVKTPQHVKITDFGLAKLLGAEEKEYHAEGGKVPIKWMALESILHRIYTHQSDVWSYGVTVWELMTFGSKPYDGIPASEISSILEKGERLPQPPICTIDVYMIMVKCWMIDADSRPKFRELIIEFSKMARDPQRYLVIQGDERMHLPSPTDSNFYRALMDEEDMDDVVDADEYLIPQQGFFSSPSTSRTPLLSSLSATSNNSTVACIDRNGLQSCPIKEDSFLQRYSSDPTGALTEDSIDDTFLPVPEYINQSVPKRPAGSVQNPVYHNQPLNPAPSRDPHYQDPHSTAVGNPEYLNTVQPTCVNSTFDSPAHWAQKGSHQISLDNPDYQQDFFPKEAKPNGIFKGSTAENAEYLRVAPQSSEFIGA
EGFR wildtype (WT), sequence (P00533 25-1210): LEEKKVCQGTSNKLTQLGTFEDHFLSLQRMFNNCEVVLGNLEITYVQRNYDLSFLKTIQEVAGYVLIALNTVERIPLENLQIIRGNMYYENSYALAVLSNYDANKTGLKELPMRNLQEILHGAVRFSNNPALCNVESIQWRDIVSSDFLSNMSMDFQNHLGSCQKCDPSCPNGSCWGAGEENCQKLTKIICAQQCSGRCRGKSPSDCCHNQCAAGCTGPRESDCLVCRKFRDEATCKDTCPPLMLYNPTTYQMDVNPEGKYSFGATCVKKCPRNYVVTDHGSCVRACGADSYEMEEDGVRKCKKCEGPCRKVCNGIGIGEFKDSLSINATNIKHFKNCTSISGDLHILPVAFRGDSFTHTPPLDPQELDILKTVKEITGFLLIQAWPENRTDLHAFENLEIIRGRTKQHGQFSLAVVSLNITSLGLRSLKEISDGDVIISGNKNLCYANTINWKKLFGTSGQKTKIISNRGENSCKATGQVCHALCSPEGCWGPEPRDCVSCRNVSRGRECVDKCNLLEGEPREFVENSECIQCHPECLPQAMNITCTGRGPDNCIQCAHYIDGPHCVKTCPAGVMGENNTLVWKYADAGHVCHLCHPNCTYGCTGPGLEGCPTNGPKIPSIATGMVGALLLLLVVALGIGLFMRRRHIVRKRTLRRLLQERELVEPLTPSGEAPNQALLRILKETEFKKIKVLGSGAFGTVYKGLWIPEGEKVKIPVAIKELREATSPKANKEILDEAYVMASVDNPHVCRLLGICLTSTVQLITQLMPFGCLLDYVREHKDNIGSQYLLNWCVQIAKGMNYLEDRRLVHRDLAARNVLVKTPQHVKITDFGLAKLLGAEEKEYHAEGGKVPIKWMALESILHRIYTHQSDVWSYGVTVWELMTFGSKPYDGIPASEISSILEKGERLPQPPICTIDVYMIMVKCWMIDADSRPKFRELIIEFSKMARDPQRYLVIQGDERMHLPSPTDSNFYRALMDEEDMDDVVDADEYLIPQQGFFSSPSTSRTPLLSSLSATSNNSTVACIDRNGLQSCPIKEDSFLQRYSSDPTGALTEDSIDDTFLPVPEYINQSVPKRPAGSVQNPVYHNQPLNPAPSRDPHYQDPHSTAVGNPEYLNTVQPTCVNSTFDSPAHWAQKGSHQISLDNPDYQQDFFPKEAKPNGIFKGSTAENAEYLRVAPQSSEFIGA
EGFR L858R/T790M/C797S, sequence (P00533 25-1210 T790M/C797S/L858R): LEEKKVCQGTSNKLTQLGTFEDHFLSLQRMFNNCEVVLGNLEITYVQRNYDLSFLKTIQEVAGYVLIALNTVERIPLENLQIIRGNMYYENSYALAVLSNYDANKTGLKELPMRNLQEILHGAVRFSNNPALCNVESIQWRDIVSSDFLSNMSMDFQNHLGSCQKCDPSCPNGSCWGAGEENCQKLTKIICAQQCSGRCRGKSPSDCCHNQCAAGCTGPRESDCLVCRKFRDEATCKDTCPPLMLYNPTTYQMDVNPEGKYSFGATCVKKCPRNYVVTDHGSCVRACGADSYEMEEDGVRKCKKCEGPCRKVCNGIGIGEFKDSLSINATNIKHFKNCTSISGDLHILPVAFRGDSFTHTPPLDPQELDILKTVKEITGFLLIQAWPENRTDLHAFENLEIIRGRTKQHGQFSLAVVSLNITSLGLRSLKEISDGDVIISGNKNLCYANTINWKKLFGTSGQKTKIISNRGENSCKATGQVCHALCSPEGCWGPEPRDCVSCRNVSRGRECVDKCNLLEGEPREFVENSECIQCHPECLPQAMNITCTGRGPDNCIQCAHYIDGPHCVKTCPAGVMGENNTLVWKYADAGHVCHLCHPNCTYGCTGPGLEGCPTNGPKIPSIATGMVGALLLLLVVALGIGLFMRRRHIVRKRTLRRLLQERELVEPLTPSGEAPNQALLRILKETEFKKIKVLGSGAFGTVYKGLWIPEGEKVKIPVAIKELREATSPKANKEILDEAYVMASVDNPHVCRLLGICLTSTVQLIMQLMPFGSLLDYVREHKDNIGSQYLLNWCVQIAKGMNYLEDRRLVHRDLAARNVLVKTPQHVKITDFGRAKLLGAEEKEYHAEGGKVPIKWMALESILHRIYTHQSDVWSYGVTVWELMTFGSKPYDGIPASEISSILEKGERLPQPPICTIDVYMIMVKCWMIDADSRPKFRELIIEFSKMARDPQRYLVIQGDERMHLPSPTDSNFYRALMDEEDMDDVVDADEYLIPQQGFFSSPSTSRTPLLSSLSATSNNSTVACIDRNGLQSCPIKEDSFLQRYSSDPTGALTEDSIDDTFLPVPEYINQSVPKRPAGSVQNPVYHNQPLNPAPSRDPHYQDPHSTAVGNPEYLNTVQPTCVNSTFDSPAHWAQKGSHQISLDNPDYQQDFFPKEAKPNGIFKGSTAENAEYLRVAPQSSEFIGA
EGFR Del19/C797S, sequence (P00533 with tags, fused parts or gaps DEL746-750/C797S): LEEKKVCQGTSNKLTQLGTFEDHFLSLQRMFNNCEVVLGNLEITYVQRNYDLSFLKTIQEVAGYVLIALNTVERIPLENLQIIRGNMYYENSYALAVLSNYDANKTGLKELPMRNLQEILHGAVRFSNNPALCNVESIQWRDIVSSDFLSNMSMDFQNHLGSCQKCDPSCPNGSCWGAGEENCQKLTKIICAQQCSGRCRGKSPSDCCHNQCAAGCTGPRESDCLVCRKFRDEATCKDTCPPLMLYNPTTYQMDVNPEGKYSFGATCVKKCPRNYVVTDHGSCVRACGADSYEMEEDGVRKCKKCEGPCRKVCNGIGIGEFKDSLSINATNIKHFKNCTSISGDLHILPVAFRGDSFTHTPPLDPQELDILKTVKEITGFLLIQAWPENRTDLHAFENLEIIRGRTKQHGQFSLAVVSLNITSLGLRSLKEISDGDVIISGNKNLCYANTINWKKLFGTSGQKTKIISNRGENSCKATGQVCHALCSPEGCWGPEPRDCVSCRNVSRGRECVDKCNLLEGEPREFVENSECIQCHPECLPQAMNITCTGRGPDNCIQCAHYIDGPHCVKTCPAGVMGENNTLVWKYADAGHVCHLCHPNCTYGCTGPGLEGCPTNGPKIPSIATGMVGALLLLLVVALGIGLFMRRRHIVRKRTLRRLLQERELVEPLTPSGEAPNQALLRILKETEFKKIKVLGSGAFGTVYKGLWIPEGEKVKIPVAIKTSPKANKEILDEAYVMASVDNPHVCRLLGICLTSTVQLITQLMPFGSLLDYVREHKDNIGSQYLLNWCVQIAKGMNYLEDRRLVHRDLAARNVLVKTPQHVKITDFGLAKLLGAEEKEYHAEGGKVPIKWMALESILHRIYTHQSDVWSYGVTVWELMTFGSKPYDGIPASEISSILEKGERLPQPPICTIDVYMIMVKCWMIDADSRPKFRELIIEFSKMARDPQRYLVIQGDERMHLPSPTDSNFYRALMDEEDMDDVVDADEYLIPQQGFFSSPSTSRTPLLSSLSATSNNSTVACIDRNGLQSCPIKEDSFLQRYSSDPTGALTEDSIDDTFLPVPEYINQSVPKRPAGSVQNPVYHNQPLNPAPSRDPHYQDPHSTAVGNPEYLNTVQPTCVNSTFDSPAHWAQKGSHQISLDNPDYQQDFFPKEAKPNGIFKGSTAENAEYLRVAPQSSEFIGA

Row | Compound | IC50 (EGFR Del19/T790M/C797S; [1]) [nM] | IC50 (EGFR Del19/T790M/C797S; [2]) [nM] | IC50 (EGFR L858R/T790M/C797S; [3]) [nM] | IC50 (EGFR L858R/T790M/C797S; [4]) [nM] | IC50 (EGFR Del19/C797S; [5]) [nM] | IC50 (EGFR Del19/C797S; [6]) [nM] | IC50 (EGFR L858R/C797S; [7]) [nM] | IC50 (EGFR L858R/C797S; [8]) [nM] | IC50 (EGFR wildtype (WT); IC50 WT (nM), 100 μM ATP) [nM] | IC50 (EGFR wildtype (WT); [9]) [nM]
1 | CS(=O)(=O)N1CCC(C#Cc2cnc(Nc3ccnc(-c4cnn(S(=O)(=O)C5CC5)c4)n3)cc2NCC2CCC(CO)CC2)C1 (stereo not drawn) [Example 400, ((1r,4r)-4-(((2-((2-(1-(Cyclopropylsulfonyl)-1H-pyrazol-4-yl)pyrimidin-4-yl)amino)-5-((1-(methylsulfonyl)pyrrolidin-3-yl)ethynyl)pyridin-4-yl)amino)methyl)cyclohexyl)methanol] | 19.3 | 34 | 22.5 | 26.1 | 35.6 | 12.8 | 1570 | 17.9 | > 10000 | 310
2 | CC1(CO)CCN(c2cc(Nc3ccnc(-c4cnn(S(=O)(=O)C5CC5)c4)n3)ncc2C#CC2CCN(S(C)(=O)=O)C2)CC1 (stereo not drawn) [Example 401, (1-(2-((2-(1-(Cyclopropylsulfonyl)-1H-pyrazol-4-yl)pyrimidin-4-yl)amino)-5-((1-(methylsulfonyl)pyrrolidin-3-yl)ethynyl)pyridin-4-yl)-4-methylpiperidin-4-yl)methanol] | 0.4 | 0.7 | 0.5 | 0.4 | 0.6 | 0.3 | 11.9 | 0.8 | 3010 | 3.9
3 | CC1(C#Cc2cnc(Nc3ccnc(-c4cnn(S(=O)(=O)C5CC5)c4)n3)cc2N[C@H]2CC[C@@H](CO)CC2)CC1 [Example 402, ((1s,4s)-4-((2-((2-(1-(Cyclopropylsulfonyl)-1H-pyrazol-4-yl)pyrimidin-4-yl)amino)-5-((1-methylcyclopropyl)ethynyl)pyridin-4-yl)amino)cyclohexyl)methanol] | 2.6 |  | 3.9 |  | 8.4 | 7.9 | 104 | 3.9 | > 10000 | 62.7
4 | CC1(C#Cc2cnc(Nc3ccnc(-c4cnn(S(=O)(=O)C5CC5)c4)n3)cc2NC[C@H]2CC[C@H](O)CC2)CC1 [Example 403, (1r,4r)-4-(((2-((2-(1-(Cyclopropylsulfonyl)-1H-pyrazol-4-yl)pyrimidin-4-yl)amino)-5-((1-methylcyclopropyl)ethynyl)pyridin-4-yl)amino)methyl)cyclohexan-1-ol] | 16.2 |  | 50.3 |  | 140 |  | 1920 |  | > 10000 | 
5 | CC1(O)CCN(c2cc(Nc3ccnc(-c4cnn(S(=O)(=O)C5CC5)c4)n3)ncc2C#CC2(C)CC2)CC1 [Example 404, 1-(2-((2-(1-(Cyclopropylsulfonyl)-1H-pyrazol-4-yl)pyrimidin-4-yl)amino)-5-((1-methylcyclopropyl)ethynyl)pyridin-4-yl)-4-methylpiperidin-4-ol] | 1.7 |  | 2.9 |  | 3.6 | 5.3 | 55.6 | 2.7 | 9350 | 45.8
6 | CC1(C#Cc2cnc(Nc3ccnc(-c4cnn(S(=O)(=O)C5CC5)c4)n3)cc2NC[C@H]2CC[C@H](CO)CC2)CC1 [Example 405, ((1r,4r)-4-(((2-((2-(1-(Cyclopropylsulfonyl)-1H-pyrazol-4-yl)pyrimidin-4-yl)amino)-5-((1-methylcyclopropyl)ethynyl)pyridin-4-yl)amino)methyl)cyclohexyl)methanol] | 46.5 |  | 94.2 |  | 249 |  | 3900 |  | > 10000 | 
7 | CN(C)CC1(C)CCN(c2cc(Nc3ccnc(-c4cnn(S(=O)(=O)C5CC5)c4)n3)ncc2C#CC2(C)CC2)CC1 [Example 406, 2-(1-(Cyclopropylsulfonyl)-1H-pyrazol-4-yl)-N-(4-(4-((dimethylamino)methyl)-4-methylpiperidin-1-yl)-5-((1-methylcyclopropyl)ethynyl)pyridin-2-yl)pyrimidin-4-amine] | 0.9 |  | 1.3 |  | 4.3 | 3.3 | 58.2 | 2.7 | > 10000 | 35.2
8 | CN(C)CCC1CCN(c2cc(Nc3ccnc(-c4cnn(S(=O)(=O)C5CC5)c4)n3)ncc2C#CC2(C)CC2)CC1 [Example 407, 2-(1-(Cyclopropylsulfonyl)-1H-pyrazol-4-yl)-N-(4-(4-(2-(dimethylamino)ethyl)piperidin-1-yl)-5-((1-methylcyclopropyl)ethynyl)pyridin-2-yl)pyrimidin-4-amine] | 0.3 |  | 0.4 |  | 0.7 | 0.6 | 13 | 0.8 | 1260 | 4.4
9 | O=C(N1CCC(C#Cc2cnc(Nc3ccnc(-c4cnn(S(=O)(=O)C5CC5)c4)n3)cc2NC2CCC(CO)CC2)C1)C(F)(F)F (stereo not drawn) [Example 408, 1-(3-((6-((2-(1-(Cyclopropylsulfonyl)-1H-pyrazol-4-yl)pyrimidin-4-yl)amino)-4-(((1s,4s)-4-(hydroxymethyl)cyclohexyl)amino)pyridin-3-yl)ethynyl)pyrrolidin-1-yl)-2,2,2-trifluoroethan-1-one] | 0.1 |  | 0.2 |  | 2.1 |  | 26 |  | 6570 | 
10 | O=C(N1CCC(C#Cc2cnc(Nc3ccnc(-c4cnn(S(=O)(=O)C5CC5)c4)n3)cc2NCC2CCC(O)CC2)C1)C(F)(F)F (stereo not drawn) [Example 409, 1-(3-((6-((2-(1-(Cyclopropylsulfonyl)-1H-pyrazol-4-yl)pyrimidin-4-yl)amino)-4-((((1 r,4r)-4-hydroxycyclohexyl)methyl)amino)pyridin-3-yl)ethynyl)pyrrolidin-1-yl)-2,2,2-trifluoroethan-1-one] | 4.3 |  | 10.5 |  | 81.3 |  | 648 |  | > 10000 | 
11 | CC1(O)CCN(c2cc(Nc3ccnc(-c4cnn(S(=O)(=O)C5CC5)c4)n3)ncc2C#CC2CCN(C(=O)C(F)(F)F)C2)CC1 (stereo not drawn) [Example 410, 1-(3-((6-((2-(1-(Cyclopropylsulfonyl)-1H-pyrazol-4-yl)pyrimidin-4-yl)amino)-4-(4-hydroxy-4-methylpiperidin-1-yl)pyridin-3-yl)ethynyl)pyrrolidin-1-yl)-2,2,2-trifluoroethan-1-one] | 0.2 |  | 0.6 |  | 3.1 |  | 29.4 |  | 7420 | 
12 | O=C(N1CCC(C#Cc2cnc(Nc3ccnc(-c4cnn(S(=O)(=O)C5CC5)c4)n3)cc2NCC2CCC(CO)CC2)C1)C(F)(F)F (stereo not drawn) [Example 411, 1-(3-((6-((2-(1-(Cyclopropylsulfonyl)-1H-pyrazol-4-yl)pyrimidin-4-yl)amino)-4-((((1 r,4r)-4-(hydroxymethyl)cyclohexyl)methyl)amino)pyridin-3-yl)ethynyl)pyrrolidin-1-yl)-2,2,2-trifluoroethan-1-one] | 7.3 |  | 35.9 |  | 59.8 |  | 979 |  | > 10000 | 
13 | CN(C)CC1(C)CCN(c2cc(Nc3ccnc(-c4cnn(S(=O)(=O)C5CC5)c4)n3)ncc2C#CC2CCN(C(=O)C(F)(F)F)C2)CC1 (stereo not drawn) [Example 412, 1-(3-((6-((2-(1-(Cyclopropylsulfonyl)-1H-pyrazol-4-yl)pyrimidin-4-yl)amino)-4-(4-((dimethylamino)methyl)-4-methylpiperidin-1-yl)pyridin-3-yl)ethynyl)pyrrolidin-1-yl)-2,2,2-trifluoroethan-1-one] | 0.3 |  | 2.7 |  | 3.3 |  | 21.5 |  | > 10000 | 
14 | CN(C)CCC1CCN(c2cc(Nc3ccnc(-c4cnn(S(=O)(=O)C5CC5)c4)n3)ncc2C#CC2CCN(C(=O)C(F)(F)F)C2)CC1 (stereo not drawn) [Example 413, 1-(3-((6-((2-(1-(Cyclopropylsulfonyl)-1H-pyrazol-4-yl)pyrimidin-4-yl)amino)-4-(4-(2-(dimethylamino)ethyl)piperidin-1-yl)pyridin-3-yl)ethynyl)pyrrolidin-1-yl)-2,2,2-trifluoroethan-1-one] | 0.1 |  | 1.4 |  | 0.8 |  | 10.3 |  | 2910 | 
15 | O=C(N1CCC(C#Cc2cnc(Nc3ccnc(-c4cnn(S(=O)(=O)C5CC5)c4)n3)cc2NC2CCC(O)CC2)C1)C(F)(F)F (stereo not drawn) [Example 414, 1-(3-((6-((2-(1-(Cyclopropylsulfonyl)-1H-pyrazol-4-yl)pyrimidin-4-yl)amino)-4-(((1 s, 4s)-4-hydroxycyclohexyl)amino)pyridin-3-yl)ethynyl)pyrrolidin-1-yl)-2,2,2-trifluoroethan-1-one] | 0.4 |  | 3.9 |  | 1.8 |  | 24.1 |  | 5190 | 
16 | CC1(CO)CCN(c2cc(Nc3ccnc(-c4cnn(S(=O)(=O)C5CC5)c4)n3)ncc2C#CC2CCN(C(=O)C(F)(F)F)C2)CC1 (stereo not drawn) [Example 415, 1-(3-((6-((2-(1-(Cyclopropylsulfonyl)-1H-pyrazol-4-yl)pyrimidin-4-yl)amino)-4-(4-(hydroxymethyl)-4-methylpiperidin-1-yl)pyridin-3-yl)ethynyl)pyrrolidin-1-yl)-2,2,2-trifluoroethan-1-one] | 0.2 |  | 1.7 |  | 1.2 |  | 21.6 |  | 5060 | 

Source: US11981658B2, “Substituted aminopyridine compounds as EGFR inhibitors” (YUHAN CORPORATION, priority 2021, dated 2024)
